In US20080206322A1, “Pharmaceutical Multiparticulate Composit Ion Comprising Mycophenolic Acid or Myco Phenolate Sodium and Combination Compositions with Rapamycin” (NOVARTIS AG, priority 2004, published 2008):
Where two headings read alike, the source gives them in different places.

Assay: Solubility in acidic medium
Assay type: physicochemical

## COc1c(C)c2c(c(O)c1C/C=C(\C)CCC(=O)O)C(=O)OC2 [mycophenolic acid]
  solubility in acidic medium: low solubility
Listed as MPA
  solubility in acidic medium: poor solubility
